Structures are written as SMILES. Peptide text beside a SMILES is read from it. Bounds are passed on as bounds.

T1 sequence (P25092 24-1073): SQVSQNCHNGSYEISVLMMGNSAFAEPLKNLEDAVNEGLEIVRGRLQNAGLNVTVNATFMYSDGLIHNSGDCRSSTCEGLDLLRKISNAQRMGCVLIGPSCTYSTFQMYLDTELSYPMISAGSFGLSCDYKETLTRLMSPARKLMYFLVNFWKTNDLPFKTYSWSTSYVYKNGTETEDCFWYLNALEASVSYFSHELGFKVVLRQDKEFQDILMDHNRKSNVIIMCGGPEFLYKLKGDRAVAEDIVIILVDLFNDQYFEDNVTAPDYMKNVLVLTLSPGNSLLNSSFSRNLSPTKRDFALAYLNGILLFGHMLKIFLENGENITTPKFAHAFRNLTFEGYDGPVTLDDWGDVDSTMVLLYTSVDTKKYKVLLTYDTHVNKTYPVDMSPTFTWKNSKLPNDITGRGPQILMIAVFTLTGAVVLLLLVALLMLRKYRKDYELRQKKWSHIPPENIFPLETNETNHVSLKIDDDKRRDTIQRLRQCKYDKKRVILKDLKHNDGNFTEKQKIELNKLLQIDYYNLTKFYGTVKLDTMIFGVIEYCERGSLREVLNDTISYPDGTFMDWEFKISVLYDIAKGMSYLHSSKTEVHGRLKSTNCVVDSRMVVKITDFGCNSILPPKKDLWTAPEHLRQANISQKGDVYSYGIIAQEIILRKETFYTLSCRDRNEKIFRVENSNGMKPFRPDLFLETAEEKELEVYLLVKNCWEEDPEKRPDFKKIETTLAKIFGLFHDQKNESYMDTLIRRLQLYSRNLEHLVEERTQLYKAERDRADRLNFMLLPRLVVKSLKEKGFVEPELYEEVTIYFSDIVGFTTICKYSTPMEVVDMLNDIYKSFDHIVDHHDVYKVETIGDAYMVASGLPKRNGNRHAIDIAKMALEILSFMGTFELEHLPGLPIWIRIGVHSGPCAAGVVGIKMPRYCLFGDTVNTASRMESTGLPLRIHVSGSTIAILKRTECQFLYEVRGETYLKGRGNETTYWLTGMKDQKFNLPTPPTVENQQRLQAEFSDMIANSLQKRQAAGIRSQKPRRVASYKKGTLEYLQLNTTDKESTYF

One series has as its target T1, GC-C receptor (Homo sapiens, UniProt P25092).
T1 construct: endogenous in cells; host or cells: T-84 cells
The series is described as follows: GC-C receptor T-84 cell assay (toxicity, cGMP levels) of culture filtrates. The series is classed as cell-based. To be noted: T84 cell assay, culture filtrate. As to the method:
T-84 cells were seeded and cultured in each well of a 24 well plate. After removing the Dulbecco's modified Eagle's medium (DMEM:F12 (1:1) Lonza Walkersville, Inc.), cells were washed 3 times with 0.5 mL DMEM. Cells were incubated with 0.25 mL DMEM containing 1 mM 3-isobutyl-1-methylxanthine (IBMX) for 10 min at 37° C. 0.1 mL of sample (culture filtrate) was added to each well and incubated for 60 min at 37° C. Following incubation, the reaction medium was aspirated, and the cells were lysed with […] HCl at room temperature for 20 min. The lysates were centrifuged at top speed for 10 min and the cGMP levels were measured in control- and agonist-stimulated cells with a direct cGMP enzyme immunoassay kit (Enzo Life Sciences, Inc.) according to the manufacturer's instructions.
The culture filtrate of each mutant was added to the T-84 cells in duplicate, and a serial dilution of culture filtrates with recombinantly expressed native ST was used to generate a standard curve.
Toxicity measured in culture filtrates is a product of intrinsic toxicity (toxicity per mol) and the concentration of the ST mutant. The same is true for antigenicity. […] Since we have no method for accurately measuring ST (mutant) concentrations in culture filtrates, we are not able to directly measure intrinsic toxicities and antigenicities for the ST mutants.
To circumvent this problem we measure toxicity and antigenicity for the ST mutants relative to native ST. This allows us to describe changes in toxicity and antigenicity in mutant culture filtrates. Next, we divide the change in antigenicity by the change in toxicity for each mutant. If the same culture filtrate has been used to measure toxicity and antigenicity this allows us to eliminate the of the concentration.
As to `CC(C)C[C@@H]1NC(=O)[C@H](CCC(=O)O)NC(=O)[C@@H]2CSSC[C@@H]3NC(=O)[C@H](C)NC(=O)[C@@H]4CCCN4C(=O)[C@H](C(C)C)NC(=O)[C@H](CSSC[C@H](NC(=O)[C@H](Cc4ccc(O)cc4)NC(=O)[C@H](CC(N)=O)NC(=O)[C@H](CO)NC(=O)[C@H](CO)NC(=O)[C@@H](N)CC(N)=O)C(=O)N2)NC(=O)[C@H](CSSC[C@@H](C(=O)N[C@@H](Cc2ccc(O)cc2)C(=O)O)NC(=O)CNC(=O)[C@H]([C@@H](C)O)NC3=O)NC1=O` [Mutant N12V] (HELM PEPTIDE1{N.S.S.N.Y.C.C.E.L.C.C.V.P.A.C.T.G.C.Y}$PEPTIDE1,PEPTIDE1,6:R3-11:R3|PEPTIDE1,PEPTIDE1,7:R3-15:R3|PEPTIDE1,PEPTIDE1,10:R3-18:R3$$$V2.0), the “toxicity relative to native STh” value is given as 0.01.

The same series, now with this note: relative to native STh; culture filtrate; ^2 = no detectable toxicity, set to detection limit 0.0014.
In turn, `CC(C)C[C@@H]1NC(=O)[C@H](CCC(=O)O)NC(=O)[C@@H]2CSSC[C@@H]3NC(=O)[C@H](C)NC(=O)[C@@H]4CCCN4C(=O)[C@H](CC(N)=O)NC(=O)[C@H](CSSC[C@H](NC(=O)[C@H](Cc4ccc(O)cc4)NC(=O)[C@H](CC(N)=O)NC(=O)[C@H](CO)NC(=O)[C@H](CO)NC(=O)[C@@H](N)CC(N)=O)C(=O)N2)NC(=O)[C@H](CSSC[C@@H](C(=O)N[C@@H](Cc2ccc(O)cc2)C(=O)O)NC(=O)CNC(=O)[C@H](CCCNC(=N)N)NC3=O)NC1=O` [Mutant T16R] (HELM PEPTIDE1{N.S.S.N.Y.C.C.E.L.C.C.N.P.A.C.R.G.C.Y}$PEPTIDE1,PEPTIDE1,6:R3-11:R3|PEPTIDE1,PEPTIDE1,7:R3-15:R3|PEPTIDE1,PEPTIDE1,10:R3-18:R3$$$V2.0) came in with a Toxicity of 0.0111.
Compound `CC(C)C[C@@H]1NC(=O)[C@H](CCC(=O)O)NC(=O)[C@@H]2CSSC[C@@H]3NC(=O)[C@H](C)NC(=O)[C@@H]4CCCN4C(=O)[C@H](CCCCN)NC(=O)[C@H](CSSC[C@H](NC(=O)[C@H](Cc4ccc(O)cc4)NC(=O)[C@H](CC(N)=O)NC(=O)[C@H](CO)NC(=O)[C@H](CO)NC(=O)[C@@H](N)CC(N)=O)C(=O)N2)NC(=O)[C@H](CSSC[C@@H](C(=O)N[C@@H](Cc2ccc(O)cc2)C(=O)O)NC(=O)CNC(=O)[C@H]([C@@H](C)O)NC3=O)NC1=O` [Mutant N12K] (HELM PEPTIDE1{N.S.S.N.Y.C.C.E.L.C.C.K.P.A.C.T.G.C.Y}$PEPTIDE1,PEPTIDE1,6:R3-11:R3|PEPTIDE1,PEPTIDE1,7:R3-15:R3|PEPTIDE1,PEPTIDE1,10:R3-18:R3$$$V2.0) yielded a Toxicity of 0.5113.
Take `CC(C)C[C@@H]1NC(=O)[C@H](CCC(=O)O)NC(=O)[C@@H]2CSSC[C@@H]3NC(=O)[C@H](CCC(N)=O)NC(=O)[C@@H]4CCCN4C(=O)[C@H](CC(N)=O)NC(=O)[C@H](CSSC[C@H](NC(=O)[C@H](Cc4ccc(O)cc4)NC(=O)[C@H](CC(N)=O)NC(=O)[C@H](CO)NC(=O)[C@H](CO)NC(=O)[C@@H](N)CC(N)=O)C(=O)N2)NC(=O)[C@H](CSSC[C@@H](C(=O)N[C@@H](Cc2ccc(O)cc2)C(=O)O)NC(=O)CNC(=O)[C@H]([C@@H](C)O)NC3=O)NC1=O` [Mutant A14Q] (HELM PEPTIDE1{N.S.S.N.Y.C.C.E.L.C.C.N.P.Q.C.T.G.C.Y}$PEPTIDE1,PEPTIDE1,6:R3-11:R3|PEPTIDE1,PEPTIDE1,7:R3-15:R3|PEPTIDE1,PEPTIDE1,10:R3-18:R3$$$V2.0): the Toxicity was < 0.0014^2.
Take `CC(C)C[C@@H]1NC(=O)[C@H](CCC(=O)O)NC(=O)[C@@H]2CSSC[C@@H]3NC(=O)[C@H](C)NC(=O)[C@@H]4CCCN4C(=O)[C@H](CC(N)=O)NC(=O)[C@H](CSSC[C@H](NC(=O)[C@H](Cc4ccc(O)cc4)NC(=O)[C@H](CC(N)=O)NC(=O)[C@H](CO)NC(=O)[C@H](CO)NC(=O)[C@@H](N)CC(N)=O)C(=O)N2)NC(=O)[C@H](CSSC[C@@H](C(=O)N[C@@H](Cc2ccc(O)cc2)C(=O)O)NC(=O)[C@H](Cc2ccc(O)cc2)NC(=O)[C@H]([C@@H](C)O)NC3=O)NC1=O` [Mutant G17Y] (HELM PEPTIDE1{N.S.S.N.Y.C.C.E.L.C.C.N.P.A.C.T.Y.C.Y}$PEPTIDE1,PEPTIDE1,6:R3-11:R3|PEPTIDE1,PEPTIDE1,7:R3-15:R3|PEPTIDE1,PEPTIDE1,10:R3-18:R3$$$V2.0): the Toxicity was 0.0234.
Compound `CC(C)C[C@@H]1NC(=O)[C@H](CCCNC(=N)N)NC(=O)[C@@H]2CSSC[C@@H]3NC(=O)[C@H](C)NC(=O)[C@@H]4CCCN4C(=O)[C@H](CC(N)=O)NC(=O)[C@H](CSSC[C@H](NC(=O)[C@H](Cc4ccc(O)cc4)NC(=O)[C@H](CC(N)=O)NC(=O)[C@H](CO)NC(=O)[C@H](CO)NC(=O)[C@@H](N)CC(N)=O)C(=O)N2)NC(=O)[C@H](CSSC[C@@H](C(=O)N[C@@H](Cc2ccc(O)cc2)C(=O)O)NC(=O)CNC(=O)[C@H]([C@@H](C)O)NC3=O)NC1=O` [Mutant E08R] (HELM PEPTIDE1{N.S.S.N.Y.C.C.R.L.C.C.N.P.A.C.T.G.C.Y}$PEPTIDE1,PEPTIDE1,6:R3-11:R3|PEPTIDE1,PEPTIDE1,7:R3-15:R3|PEPTIDE1,PEPTIDE1,10:R3-18:R3$$$V2.0) returned a Toxicity of 0.0021.
For `CC(C)C[C@@H]1NC(=O)[C@H](CCC(=O)O)NC(=O)[C@@H]2CSSC[C@@H]3NC(=O)[C@H]([C@@H](C)O)NC(=O)[C@@H]4CCCN4C(=O)[C@H](CC(N)=O)NC(=O)[C@H](CSSC[C@H](NC(=O)[C@H](Cc4ccc(O)cc4)NC(=O)[C@H](CC(N)=O)NC(=O)[C@H](CO)NC(=O)[C@H](CO)NC(=O)[C@@H](N)CC(N)=O)C(=O)N2)NC(=O)[C@H](CSSC[C@@H](C(=O)N[C@@H](Cc2ccc(O)cc2)C(=O)O)NC(=O)CNC(=O)[C@H]([C@@H](C)O)NC3=O)NC1=O` [Mutant A14T] (HELM PEPTIDE1{N.S.S.N.Y.C.C.E.L.C.C.N.P.T.C.T.G.C.Y}$PEPTIDE1,PEPTIDE1,6:R3-11:R3|PEPTIDE1,PEPTIDE1,7:R3-15:R3|PEPTIDE1,PEPTIDE1,10:R3-18:R3$$$V2.0), the Toxicity is < 0.0014^2.
Still for that read-out and setting: to `CC[C@H](C)[C@@H]1NC(=O)[C@@H]2CCCN2C(=O)[C@H](CC(N)=O)NC(=O)[C@@H]2CSSC[C@H](NC(=O)[C@H](Cc3ccc(O)cc3)NC(=O)[C@H](CC(N)=O)NC(=O)[C@H](CO)NC(=O)[C@H](CO)NC(=O)[C@@H](N)CC(N)=O)C(=O)N[C@H]3CSSC[C@H](NC1=O)C(=O)N[C@@H]([C@@H](C)O)C(=O)NCC(=O)N[C@H](C(=O)N[C@@H](Cc1ccc(O)cc1)C(=O)O)CSSC[C@H](NC(=O)[C@H](CC(C)C)NC(=O)[C@H](CCC(=O)O)NC3=O)C(=O)N2` [Mutant A14I] (HELM PEPTIDE1{N.S.S.N.Y.C.C.E.L.C.C.N.P.I.C.T.G.C.Y}$PEPTIDE1,PEPTIDE1,6:R3-11:R3|PEPTIDE1,PEPTIDE1,7:R3-15:R3|PEPTIDE1,PEPTIDE1,10:R3-18:R3$$$V2.0) belongs < 0.0014^2; to `CC(C)C[C@@H]1NC(=O)[C@H](CCC(=O)O)NC(=O)[C@@H]2CSSC[C@@H]3NC(=O)[C@H](C)NC(=O)[C@@H]4CCCN4C(=O)[C@H](CC(N)=O)NC(=O)[C@H](CSSC[C@H](NC(=O)[C@H](Cc4ccc(O)cc4)NC(=O)[C@H](CC(N)=O)NC(=O)[C@H](CO)NC(=O)[C@H](CC(N)=O)NC(=O)[C@@H](N)CC(N)=O)C(=O)N2)NC(=O)[C@H](CSSC[C@@H](C(=O)N[C@@H](Cc2ccc(O)cc2)C(=O)O)NC(=O)CNC(=O)[C@H]([C@@H](C)O)NC3=O)NC1=O` [Mutant S02N] (HELM PEPTIDE1{N.N.S.N.Y.C.C.E.L.C.C.N.P.A.C.T.G.C.Y}$PEPTIDE1,PEPTIDE1,6:R3-11:R3|PEPTIDE1,PEPTIDE1,7:R3-15:R3|PEPTIDE1,PEPTIDE1,10:R3-18:R3$$$V2.0), 0.7308.
Consider `CC(C)C[C@@H]1NC(=O)[C@H](CCC(=O)O)NC(=O)[C@@H]2CSSC[C@@H]3NC(=O)[C@H](C)NC(=O)[C@H](C)NC(=O)[C@H](CC(N)=O)NC(=O)[C@H](CSSC[C@H](NC(=O)[C@H](Cc4ccc(O)cc4)NC(=O)[C@H](CC(N)=O)NC(=O)[C@H](CO)NC(=O)[C@H](CO)NC(=O)[C@@H](N)CC(N)=O)C(=O)N2)NC(=O)[C@H](CSSC[C@@H](C(=O)N[C@@H](Cc2ccc(O)cc2)C(=O)O)NC(=O)CNC(=O)[C@H]([C@@H](C)O)NC3=O)NC1=O` [Mutant P13A] (HELM PEPTIDE1{N.S.S.N.Y.C.C.E.L.C.C.N.A.A.C.T.G.C.Y}$PEPTIDE1,PEPTIDE1,6:R3-11:R3|PEPTIDE1,PEPTIDE1,7:R3-15:R3|PEPTIDE1,PEPTIDE1,10:R3-18:R3$$$V2.0), for which the Toxicity is listed as < 0.0014^2.
`CC(C)C[C@@H]1NC(=O)[C@H](CCC(=O)O)NC(=O)[C@@H]2CSSC[C@@H]3NC(=O)[C@H](C)NC(=O)[C@@H]4CCCN4C(=O)[C@H](CC(N)=O)NC(=O)[C@H](CSSC[C@H](NC(=O)[C@H](Cc4ccc(O)cc4)NC(=O)[C@H](CC(N)=O)NC(=O)[C@H](Cc4ccccc4)NC(=O)[C@H](CO)NC(=O)[C@@H](N)CC(N)=O)C(=O)N2)NC(=O)[C@H](CSSC[C@@H](C(=O)N[C@@H](Cc2ccc(O)cc2)C(=O)O)NC(=O)CNC(=O)[C@H]([C@@H](C)O)NC3=O)NC1=O` [Mutant S03F] (HELM PEPTIDE1{N.S.F.N.Y.C.C.E.L.C.C.N.P.A.C.T.G.C.Y}$PEPTIDE1,PEPTIDE1,6:R3-11:R3|PEPTIDE1,PEPTIDE1,7:R3-15:R3|PEPTIDE1,PEPTIDE1,10:R3-18:R3$$$V2.0): the Toxicity came out at 0.3871.

(Values after patent publication US10166279B2, “Vaccine” (Bergen Teknologioverføring AS, priority 2013, dated 2019).)
